Tests used:
brown Norwegian rats = assay: Animal model of allergic bronchial asthma (ovalbumin); type: in vivo, rat; settings: aerosol of isotonic D2O solution for 6 days before ovalbumin aerosol; after 24 hours
Experimental: The effect of D2O in allergic asthma was presented in an animal model of 10-week-old brown Norwegian rats (Roumestan et al., Resp Res 8:35-46, 2007). Sensitization of the animals occurred by repeated intraperitoneal injection of ovalbumin. The animals were then introduced to a climatized cage and constantly treated with an aerosol of isotonic H2O or D2O solution for 6 days. Asthma triggering by an ovalbumin-containing aerosol then occurred. The change in airway resistance was then determined as parameter by barometric plethysmography on the living animals after 24 hours. A significant intensification of airway resistance was found in the H2O-treated group.

[1] = test system: elastase activity in the blister fluid; assay: Ex vivo bullous pemphigoid blister fluid: degradation of recombinant BP180 antigen; type: biochemical, human; settings: added to blister fluid; autoradiography after gel electrophoresis; vs untreated control
Experimental: The blister fluid in patients with bullous pemphigoid was sampled in an ex vivo model (Verraes et al., 2001). Recombinant radioactively-labeled BP180 antigen, the target antigen in this disease, was then added to the blister fluid and decay determined autoradiographically after gel electrophoresis. For inhibition of elastase activity in the blister fluid either D2O or the elastase inhibitor chloromethyl ketone was added to it. An untreated control served as comparison. Both with chloromethyl ketone and with D2O the degradation of the recombinant BP180 antigen could be inhibited, whereas the protein was almost completely degraded by the untreated blister fluid.

[2] = test system: patients with leukocytoclastic skin vasculitis; assay: Half-side gel experiment in leukocytoclastic skin vasculitis; type: in vivo, human; settings: D2O-containing gel on lower leg three times a day, 4 days; vs H2O gel
Experimental: Leukocytoclastic skin vasculitis is characterized by recurring behavior. A special feature of this dermatosis is destruction of cutaneous capillaries by an inflammatory process in which neutrophil granulocytes participate almost exclusively. To check the effect of D2O-containing gel on the extent of cutaneous lesions patients with leukocytoclastic skin vasculitis were treated in a half-side experiment. Either an H2O- or D2O-containing gel were applied in randomized fashion on the right or left lower leg three times a day. After a treatment time of 4 days the treatments was compared by means of a clinical score that evaluates the number and expression of vasculitis lesions.

Syrian Gold hamsters = assay: D2O instillation in an animal model of COPD (HNE-induced hemorrhage); type: in vivo, hamster
Experimental: To investigate the effect of D2O in a model for chronic obstructive pulmonary disease (COPD) male Syrian Gold hamsters (average weight 118 g±4 g) were divided into two groups (experimental group and control group) of 10 hamsters each. The animals of both groups were initially anesthetized intraperitoneally (ketamine 95 mg/kg and xylazine 17 mg/kg) and then intubated endotracheally with direct laryngoscopy. The experimental group received 250 μL of 0.9% NaCl solution based on D2O (98.5% deuterium enrichment) instilled, whereas 250 μL of a corresponding isotonic NaCl solution based on H2O was used in the control group. Each animal received after the end of this instillation a second instillation at a time interval of 30 minutes, which was identical for both groups: 100 μL of human neutrophil elastase (HNE, 500 μg/mL in sterile 0.9% NaCl solution). The animals were killed 4 hours (six animals per group) or 24 hours (four animals per group) after the last instillation (phenobarbital 70 mg/kg intraperitoneally).
For the animals killed 4 hours after instillation a BAL (bronchoalveolar lavage) was performed. 2.5 mL 0.9% NaCl solution was repeatedly instilled (total 3 times) for BAL and the hemoglobin concentration in the instillate then determined spectrophotometrically. The obtained value was used as a gauge for lung damage (hemorrhage) by human neutrophil elastase (HNE). For the control group an average hemoglobin value of 320±50 mOD (milli-optical density) was obtained. For the experimental group an average hemoglobin value of 170±20 mOD was measured.
For the animals killed 24 hours after instillation the lungs were removed, fixed in formalin and embedded in paraffin. Histologic longitudinal sections of the lungs in the direction of the lung hilus were prepared, stained and made visible with iron by means of an histochemical reaction (Berlin blue reaction), which serves as a gauge for the intensity of HNE-induced hemorrhage. The microscopic investigation of the sections gave the following result: […]

[3] = test system: patients with type 1 sensitization and allergic rhinitis; assay: Nasal spray in allergic rhinitis; type: in vivo, human; settings: isotonic saline using 70% D2O, 6 times a day, 14 days, vs H2O group
Experimental: A solution with D2O was prepared accordingly for application as nasal spray. […] The number of sneezing attacks was determined and the intensity of runny nose and nasal itching measured by visual analog scales as parameters. For this purpose a patient diary was used.
A solution with D2O was prepared according to example 21 for use as nasal spray. […] The number of sneezing attacks was determined as parameter and the intensity of runny nose and nasal itching were measured by visual analog scales. For this purpose a patient diary was used.

Wistar rats = assay: Animal model of allergic conjunctivitis (chicken protein); type: in vivo, rat; settings: D2O-based isotonic saline trickled together with chicken protein
Experimental: A corresponding animal model was used to test the efficacy of eye drops prepared with D2O (Minami et al., Biol. Pharm. Bull 28:473-476, 2005). In 6-week-old Wistar rats an allergy to chicken protein was produced by injection of chicken protein together with alum and 10^10 B. pertussis into the soles of the feet and then a booster with chicken protein in the back area. Before the experiment the animals were kept in a climatized cage and after 10 minutes of adaptation 5 μL chicken protein solution was trickled into each eye. The animals were then transferred to an observation cage and the scratching movements in the direction of the eyes counted over a period of 20 minutes. Hyperemia and conjunctival edema were then determined.
To investigate an effect of D2O on the symptoms caused by chicken protein either H2O- or D2O-based isotonic saline was trickled together with the chicken protein in a double-blind design.

degradation of the recombinant BP180 antigen [1]: inhibited
Structure (SMILES): [2H]O[2H] [D2O, deuterium oxide]
change in airway resistance (barometric plethysmography) (brown Norwegian rats): only a slight increase in airway resistance | clinical score (number and expression of vasculitis lesions) [2]: distinct reduction of the clinical score | average hemoglobin value in BAL (Syrian Gold hamsters; 250 μL 0.9% NaCl solution based on D2O instilled 30 minutes before HNE, animals killed 4 hours after instillation): 170±20 mOD | blue-stained cells in lung sections (Berlin blue reaction), intensity of HNE-induced hemorrhage (Syrian Gold hamsters; animals killed 24 hours after instillation, vs H2O control group): significantly smaller number of blue-stained cells | inhibition of the acute lung damage caused by elastase (hemorrhage) (Syrian Gold hamsters; instillation, from reduction in hemoglobin concentration in BAL vs H2O control group, 4 hours): 47% | sneezing attacks, intensity of runny nose and nasal itching (recorded parameters) [3]: significant reduction of the recorded parameters | number of scratching movements in the eye direction (Wistar rats; after 20 minutes, vs H2O): significant reduction in the number of scratching movements | hyperemia and edema (Wistar rats; vs H2O group): reduced
